These results are taken from PubChem BioAssay (NCI).

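Dose response: 5 concentrations. Exposure: 48 h. Format: 96-well plates. Endpoint: linear interpolation; highest concentration if not reached. At the TGI there is no net growth.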

What all share (assay): DTP human tumour cell line panel, 48 h
Assay [1] relates to SK-MEL-5 melanoma.
Assay [2] has as its system BT-549 breast.
For assay [3], the system named is OVCAR-8 ovarian.
The test system of assay [4] is MOLT-4 leukemia.
Assay [5] deals with UACC-62 melanoma.
Assay [6] has as its system LOX IMVI melanoma.
Assay [7] deals with HOP-62 NSCLC.
Assay [8] relates to SR leukemia.
The test system of assay [9] is NCI-H522 lung.
Assay [10] has as its system SK-MEL-28 melanoma.
Assay [11] has as its system SK-OV-3 ovarian.
The subject of assay [12] is SW-620 colon.
Assay [13] deals with UACC-257 melanoma.
Assay [14] deals with HCT-15 colon.
The subject of assay [15] is COLO 205 colon.
Assay [16] has as its system HT29 colon.
Assay [17] has as its system SNB-19 CNS.
For assay [18], the system named is TK-10 renal.
Assay [19] relates to MDA-MB-435.

As a reminder, the TGI is the concentration at which net growth stops. The low end stands for more potent growth arrest, the high end for less potent growth arrest.

With `COc1cc(OC)c2c(=O)cc(-c3ccccc3F)[nH]c2c1`, the TGI in [1], in assay [2], in assay [3], in [4], in [5] and in [6] was more than 100 µM each time. The total growth inhibition concentration (TGI) in [7], in [8], in assay [9], in assay [10], in assay [11] and in assay [12] was more than 100 µM in each case. In addition, the TGI in assay [13] is more than 100 µM; in assay [14] it was more than 100 µM; in [15] it was more than 100 µM; in assay [16] it was more than 100 µM; in [17], 73.6 µM; in [18], 84.4 µM. This compound gave a TGI in assay [19] of more than 100 µM.
Regarding `C=CC(c1ccccc1)[C@@]1(OC(C)=O)C(=O)C(=O)OC1C1COC(C)(C)O1` (stereo partly drawn), the concentration for total growth inhibition (TGI) was determined as 29.7 µM in assay [1]; 30.1 µM in assay [2]; 27.9 µM in assay [3]; 34.6 µM in assay [4]; 29 µM in assay [5]; 16.2 µM in assay [6]. In addition, the TGI was determined as 34.2 µM in assay [7]; 10.2 µM in assay [8]; 10.8 µM in assay [9]; 24.6 µM in assay [10]; 32.3 µM in assay [11]; 35.8 µM in [12]. Also, the TGI amounted to 23.9 µM in assay [13]; 24.9 µM in assay [14]; 26.5 µM in assay [15]; 46.2 µM in assay [16]; 42.7 µM in assay [17]; 27.1 µM in assay [18]. Moreover, in [19], the TGI is 31.2 µM.
With `CN(CCCCN1CCCC1)CCCN(C)C(=O)Cc1ccc(Cl)c(Cl)c1`, the TGI was 23.8 µM in [1]; 32.5 µM in [2]; more than 100 µM in assay [3]; 26.5 µM in [4]; 16.9 µM in assay [5]; 27.9 µM in assay [6]. Further, the TGI in assay [7] was 34.4 µM; in [8], 15.6 µM; in [9], 27.9 µM; in [10] it was 3.51 µM; in assay [11], more than 100 µM; in assay [12], 42.6 µM. Besides, the total growth inhibition concentration (TGI) stood at 13.5 µM in assay [13]; 85.1 µM in assay [14]; 28.9 µM in [15]; 18.1 µM in assay [16]; 57.2 µM in [17]; 33.7 µM in [18]. This compound registered a TGI in assay [19] of 10.2 µM.
Turning to `CC1(C)O[C@@H]2[C@@H](COC(=O)c3ccccc3)C[C@@H](C#N)[C@@H]2O1`, the TGI in [1], in assay [2], in assay [3], in assay [4], in [5] and in assay [6] was more than 100 µM each time. Besides, the TGI in assay [7], in assay [8], in [9], in assay [10], in [11] and in [12] was more than 100 µM throughout. In addition, the TGI in assay [14], in [15], in assay [16], in [17], in assay [18] and in [19] was more than 100 µM each time.
Regarding `CN(C)c1ccc(/C=c2/c3ccccc3n3nc4ccccc4c23)cc1`, the TGI in [1] was 73.5 µM; in assay [2], 71.5 µM; in assay [3] it was more than 100 µM; in [4], more than 100 µM; in assay [5], more than 100 µM; in assay [6] it was more than 100 µM. In addition, the TGI in assay [7] is more than 100 µM; in assay [8], 25.1 µM; in assay [9] it was 31.9 µM; in assay [10] it was more than 100 µM; in assay [11], more than 100 µM; in assay [12], more than 100 µM. In addition, the TGI in assay [13] was more than 100 µM; in assay [14], more than 100 µM; in assay [15] it was 50.9 µM; in [16] it was more than 100 µM; in assay [17] it was more than 100 µM; in assay [18] it was more than 100 µM. The compound further registered a total growth inhibition concentration (TGI) in assay [19] of more than 100 µM.
In the case of `COc1cc(/C=C2\C[C@H]3[C@@H]4CC=C5C=C(N6CCCC6)CC[C@]5(C)[C@H]4CC[C@]3(C)C2=O)cc(OC)c1OC`, the TGI in [1] is more than 27.9 µM; in assay [2], 5.82 µM; in assay [3], 6.1 µM; in assay [4] it was more than 28 µM; in assay [5], 5.46 µM; in assay [6], 2.87 µM. The concentration for total growth inhibition (TGI) in [7] is 7.17 µM; in assay [8], more than 100 µM; in [9] it was 2.88 µM; in [10] it was 19.5 µM; in [11], 22.1 µM; in assay [12] it was more than 41.6 µM. For the same compound, the TGI in assay [13] worked out at 9.48 µM; in assay [14] it was 6.53 µM; in assay [15], 10.7 µM; in assay [16], 8.67 µM; in [17], 18.4 µM; in assay [18], 21.4 µM. The compound further yielded a TGI in assay [19] of 5.83 µM.
With `O=C1SS(=O)c2ccccc21` (stereo not drawn), the total growth inhibition concentration (TGI) in assay [1], in [2], in assay [3], in assay [4], in assay [5] and in assay [6] was more than 100 µM throughout. The TGI in assay [7], in assay [8], in assay [9], in [10], in assay [11] and in assay [12] was more than 100 µM throughout. Besides, the TGI in assay [13], in [14], in assay [15], in assay [16], in assay [17] and in assay [19] was more than 100 µM in each case.
As for `COc1cc(C2c3cc(O)c(OC)cc3C3OCC2C3CO)ccc1O` (stereo not drawn), the concentration for total growth inhibition (TGI) in assay [1], in assay [2], in [4], in [5], in assay [6] and in assay [7] was more than 100 µM throughout. Also, the concentration for total growth inhibition (TGI) in assay [8], in assay [9], in assay [10], in assay [11], in assay [12] and in assay [14] was more than 100 µM throughout. In addition, the TGI in assay [15], in assay [16], in assay [17], in assay [18] and in assay [19] was more than 100 µM throughout.
